Experimental data taken from patent publication US7713923B2, “Self-assembling peptides incorporating modifications and methods of use thereof” (Massachusetts Institute of Technology, priority 2003, dated 2010).

Assays:
[1] = test system: human aortic endothelial cells (HAEC); assay: Western blot of laminin 1 and collagen IV production by HAEC; assay type: cell-based; conditions: compared to conventional 2D tissue culture plates
Excerpt: Western blots. Harvested HAEC for each culture condition were counted and lysed with sample buffer (NP0007, Invitrogen, CA) containing 2% (v/v) β-mercaptoethanol and a cocktail of protease inhibitors (1836153, Complete Mini, Roche, Penzberg, Germany) to avoid proteolysis. Cell lysates were run on a 10% PAGE system in MOPS buffer (NP0301, NP0001 Invitrogen, CA), and proteins were transferred to PVDF membranes (LC2002, Invitrogen, CA) to perform western blots. Briefly, membranes were blocked with 2% BSA and 0.1% Triton-X 100 in PBS. Two primary antibodies were used: mouse monoclonal IgG, anti human laminin γ1 [laminin B2 chain] (1 μg/ml, B1920, Chemicon, CA) and mouse monoclonal IgG, anti human collagen IV [7S domain] (2 μg/ml, MAB3326, Chemicon, CA). A secondary antibody, goat polyclonal anti-mouse IgG-HRP conjugated (1:5000 dilution, sc-2302, Santa Cruz Biotechnology, CA) was used for detection by chemiluminescence (sc-2048, Santa Cruz Biotechnology, CA). Protein bands were visualized by exposure to an X-ray film (Biomax Film, Kodak, N.Y.).

Liver progenitor cells = conditions: encapsulated cells; cited from earlier work
neurons = neurons grown on surface; cited from earlier work
[2] = Rheometry (dynamic frequency and time sweep); assay type: physicochemical
Protocol: Rheometry. Rheological assays were performed on a 50 mm parallel plate ARES strain controlled rheometer (Rheometric Scientific, NJ). Samples were dissolved in deionized water at a final concentration of 2.9 mM and sonicated for one hour the day prior to the analysis. A volume of 1 ml was loaded on the lower plate, and the upper plate was set to a gap size between 0.4-0.45 mm. Dynamic frequency sweep tests were performed in a range of frequencies from 100 to 0.1 radis. After the test, PBS was added around the lower plate in order to promote gelation. The peptide was allowed to gel for 10 min at room temperature before the test was performed once again. After a dynamic frequency sweep test, the behavior of samples over time was tested. A dynamic time sweep test was performed at 10 rad/s for 5 min.
Rheology. A dynamic strain sweep was first performed on RAD16-I to set the linear viscoelastic region of the test and to select a fixed strain for the dynamic frequency sweep tests (FIG. 19). This linear viscoelastic range is defined by constant moduli, G′ and G″. It is important to select a strain within this range to obtain reliable results (Schramm, 1994). The strain selected was 0.01 (dimensionless) and was applied in all assays.

[3] = Gel formation by visual observation; assay type: physicochemical; conditions: 1% solution, standing overnight at room temperature, no PBS
Protocol: The peptides used in the examples are based on the self-assembling peptide RAD16-I. The peptide was modified to include a variety of peptide motifs previously identified as mediating various biological activities. Physicochemical and structural properties of the peptides were assessed using a variety of techniques. Peptide solubility in aqueous solution was tested. The ability of the peptides to self-assemble into higher order structures was examined. In particular, the ability of the peptides to form various secondary structures (e.g., β-sheet) was determined using circular dichroism. The ability of the peptides to self-assemble into nanofibers was evaluated using atomic force microscopy (AFM). Gel formation was assessed by visual observation and rheology.
Gel formation. Each peptide solution at 1% was used to assess hydrogel formation. […] For all the soluble peptides, gel formation was readily observed upon the addition of equal volumes of phosphate buffered saline (PBS).

[4] = test system: human aortic endothelial cells (HAEC); assay: HAEC monolayer formation on peptide scaffolds; assay type: cell-based; design: key to HAEC monolayer formation, peptide content 100% / HAEC monolayer formation, Blending (9:1): +: Score for optimal monolayer formation and cell survival; −: Score for poor or none monolayer formation and cell survival
Protocol: Endothelial cell culture system. Peptide scaffolds (0.5% w/v) were prepared at 100% peptide sequence for RAD16-I or blended with RAD16-I at a radio of 9:1 (RAD16-I: peptide sequence, on a volume/volume basis) for the three other cases (YIG, RYV, and TAG). Each solution was filtered (0.2 μm, Acrodysc filters, 4192, PALL, MI), loaded (30 μl) on top of a cell culture chamber insert (10 mm diameter, 136935, Nalge Nunc International, IL), and allowed to form a layer (average thickness=600 μm). Phosphate Buffer Saline (PBS) (600 μl) was added at the bottom of the well to induce hydrogel formation, and the system was incubated at room temperature for 30 min. PBS was replaced with culture medium, which was then replaced with fresh medium. The scaffolds were incubated for 1 hour with endothelial cell growth media (EGM-2, Cambrex, MD) in a cell culture incubator at 37° C. with 5% CO2.
(§1) Meanwhile, human aortic endothelial cells (HAEC) (CC-2535, Cambrex, MD) that had been maintained under standard culture conditions (passage 5-6) were harvested at 80% confluence using trypsin and loaded on top of the preformed peptide scaffolds at a cell density of 8×10^4 cells/cm^2 and cultured in the cell culture incubator at 37° C. with 5% CO2. Cell attachment assays were performed one hour after the initial cell loading. To perform the assays, the covering media was removed, and unattached cells were counted on a hematocytometer. Cell counting was performed by mechanically disrupting the scaffold containing cells by pipetting up and down and then counting cells on a hematocytometer after performing Trypan blue (T 9906, Sigma, MO) exclusion assay staining to assess cell viability. In some experiments, for comparison, EC were cultured on inserts coated with Matrigel or collagen (1.5 mg/ml, i.e. 0.15%) according to standard protocols.
In a first experiment, we tested the ability of HAEC to attach and form a monolayer when seeded on various peptide scaffolds generated by self-assembly of the peptides following addition of PBS to a 0.5%(w/v) solution of the peptide in water. […] HAEC cultured in the presence of scaffolds generated from peptides incorporating the other biologically active peptide motifs either died or formed isolated clusters (FIGS. 9A-9G).
We therefore decided to blend the peptides incorporating biologically active motifs with the prototypic RAD16-I sequence in order to reduce the overall concentration of the biologically active motif presented to cells. We selected a volume/volume ratio of 9:1 (RAD16-I:modified peptide sequence comprising biologically active peptide motif, where peptides were dissolved at equal concentrations on a w/w basis) and generated peptide scaffolds from solutions in which the unmodified and modified peptides were present in this ratio.

[5] = test system: human aortic endothelial cells (HAEC); assay: HAEC attachment assay on peptide scaffolds; assay type: cell-based; conditions: after one hour; modified peptides as 9:1 blends with RAD16-I
Protocol: as §1

increase of both moduli (G′, G″) upon addition of salts ([2]; PBS added, 10 minutes gelation): ≈ 10 fold
storage modulus G′ ([2]; after addition of PBS, dynamic frequency sweep, strain 0.01, 2.9 mM peptide): 2.5×10^3 Pa
Increased viscosity by visual inspection [3]: Increased viscosity was observed
SMILES: CC(=O)N[C@@H](CCCNC(=N)N)C(=O)N[C@@H](C)C(=O)N[C@@H](CC(=O)O)C(=O)N[C@@H](C)C(=O)N[C@@H](CCCNC(=N)N)C(=O)N[C@@H](C)C(=O)N[C@@H](CC(=O)O)C(=O)N[C@@H](C)C(=O)N[C@@H](CCCNC(=N)N)C(=O)N[C@@H](C)C(=O)N[C@@H](CC(=O)O)C(=O)N[C@@H](C)C(=O)N[C@@H](CCCNC(=N)N)C(=O)N[C@@H](C)C(=O)N[C@@H](CC(=O)O)C(=O)N[C@@H](C)C(N)=O [RAD16-I, AcN-(RADA)4-CONH2]
laminin 1 and collagen IV deposition by HAEC [1]: significant enhancement of laminin 1 and collagen IV deposition
hepatocyte marker expression (Liver progenitor cells): expressed markers indicative of hepatocyte phenotype
neurite outgrowth and synapse formation on peptide structure (neurons): able to serve as a substrate for neurite outgrowth and formation of functionally active synapses
HAEC monolayer formation, scaffold of 100% peptide ([4]; 0.5% (w/v) peptide, no blending): monolayer formation was observed
HAEC monolayer formation and cobblestone morphology on gel systems ([4]; after 3 days in culture): less than on blended scaffolds or on Matrigel or collagen-I
HAEC monolayer formation, peptide content 100% ([4]; scaffold of 100% peptide, 0.5% (w/v)): +¶
HAEC attachment to the surface [5]: ~100%
